Patent publication US8575217B2, “Anti-inflammatory and antioxidant conjugates useful for treating metabolic disorders” (Genmedica Therapeutics SL, priority 2009, dated 2013)
Blank lines part the entries; values can stand above or below the molecule they belong to.

Columns and labels:
human diabetic patients = conditions: 4.5 g/day; cited from earlier work
[1] = Chemical stability of conjugates in neutral, acidic and basic solutions; type: physicochemical
Protocol: Exemplary expérimental results showing the efficacy of certain embodiments of the combinations of the invention are set forth in the drawings. Stability studies were performed on thioester conjugates of N-acetylcysteine and salicylate, diflunisal or dexibuprofen, at neutral (pH 7), acidic, or basic (9) pH in phosphate-buffered saline (PBS). […] Diflunisal-NAC conjugates were tested for 3 or 24 hours under the same neutral, acidic and basic conditions, at room température or 4° C., and in PBS or mixture of water and méthanol.

[2] = Cleavage by rat liver microsomes; type: in vitro ADME; conditions: 1 hour incubation; for cleavage of conjugate, rat versus human microsomes: free salicylate or diflunisal assayed
Protocol: (§1) In vitro cleavage experiments were performed substantiallas described in Singh et al., 1996, In vitro metabolism of a potent HIV-protease inhibitor (141W94) using rat, monkey and human liver S9, Rapid Commun. Mass Spectrom. 10: 1019-1026. Briefly, conjugate compounds of the invention were incubated at a final concentration of 1 microM for 1 hour in the presence of human or rat liver microsome S9 (obtained from Xenotech). At the end of incubation at each of the time points reported, an equal volume of an organic mixture (acetonitrile/methanol, 50/50, v/v) was added to the incubation mixture followed by centrifugation. At this time blank microsomal extract was spiked with metabolites to create calibration standards for each metabolite at the following concentrations: 0 (blank), 0.05, 0.1, 0.5 and 1 microM. All samples were analyzed by HPLC-MS/MS and the peak areas corresponding to the expected metabolites (generally, antioxidant and anti-inflammatory cleaysasge products) were determined by HPLC-MS/MS. The amount of each metabolite present in the 60 minute incubation samples was determined from the corresponding calibration curve.
The capacity for conjugates of the invention to be cleaved was tested in vitro using rat or human liver microsomes. […] Similar experiments were performed in plasma from rat or human for salicylate-NAC or diflunisal-NAC conjugates; thèse results are shown in FIGS. 3 and 4, respectively.

[3] = tested on: alloxan-treated cd-1 mice; assay: In vivo beta cell protection model (alloxan); conditions: for plasma insulin levels: lysine salt, alloxan-treated (FIG. 6)
Protocol: Beta-cell destruction was induced in cd-1 mice after 3 hours of fasting by a single intraperitoneal injection of a freshly prepared solution of alloxan 200 mg/kg (Sigma-Aldrich, San Luis, Mo.) that was dissolved in NaCl 0.9%. Single intraperitoneal drug administration was 1 hour before the alloxan administration. Animals received the different drugs dissolved in PBS pH 7.4, and the animals that not received any drug were injected with the vehicle, in this case PBS pH 7.4. At the end of the treatment, at day 4, animals were killed and the plasma collected and kept at −20° C. until used.
(§2) The circulating glucose concentration was determined by a rapid glucose analyzer (Accu-Chek Aviva; Roche). Plasma triglycerides and non esterified fatty acids were determined with standard colorimetric methods (Biosystems, Barcelona, Spain, and Wako Chemicals, Neuss, Germany, respectively). Plasma insulin concentration was determined by enzyme-linked immunosorbent assay method (CrystalChem, Downers Grove, Ill.). Total pancreas insulin content has been determined after extraction of insulin with a mixture Ethanol (70%)/HCl (0.15 N) from pancreas homogenates.

db/db mice [4] = assay: Intraperitoneal glucose tolerance test in db/db mice; type: in vivo; conditions: salicylate-NAC 1.5, diflunisal-NAC 0.5 mmol/kg/day as lysine salt; glucose 0.5 g/kg ip, 120 minute timecourse
Protocol: At the fourth week of treatment, a Glucose Tolerance Test was done to the mice after an overnight fasting. The animals received an ip injection of Glucose 0.5 g/kg (Glucosmon 50®). The glycemia levels were determined in blood at the indicated time from the Tail Vein after the Glucose injection using a rapid glucose analyzer.

db/db mice [5] = assay: Chronic treatment in db/db mice; type: in vivo
db/db mice [6] = assay: Pancreas insulin content and immunohistochemical analysis of pancreas sections in db/db mice; type: in vivo; conditions: chronic oral, four weeks, 0.5 mmol/kg/day (FIG. 24)
Protocol: as §2
The pancreas was removed from each mouse and fixed overnight in a solution of 4% formalin. Fixed tissues were processed routinely for paraffin embedding, and 6-μm sections were prepared and mounted on slides treated with xilane. For detection of insulin, the avidin-biotin complex (ABC) method was performed using Vectastain ABC Kit (Vector Laboratories). Deparaffinized and […] sections were microwaved in citrate buffer (pH 6.0) for antigen retrieval, then were incubated in Tris 100 mM pH 7.4 containing 3% BSA, and 0.01% Triton, to permeabilize and block nonspecific staining, for 30 min, and after that, were incubated with the guinea pig polyclonal anti-insulin antibody (Dako), diluted 1/500 in blocking solution for 2 hours. Negative controls were incubated with blocking solution without the primary antibody. […]

control animals = assay: Preliminary experiment with control animals (oral diflunisal-NAC); type: in vivo; conditions: oral 0.5 mmol/kg
[7] = Diflunisal and NAC blood levels after oral administration of conjugate versus separate components; type: in vivo, rats; conditions: 7-hour timecourse (FIG. 16)
Protocol: A comparison of diflunisal and NAC levels in blood after oral administration was performed in rats by administration of the diflunisal-NAC conjugate (GMC-252) or the individual components separately (i.e., not chemically conjugated). Conjugate (20 mg/kg) or the equivalent amount of difliunisal and NAC were administered and blood assayed over a 7-hour timecourse.

[8] = Cleavage by human liver microsomes; type: in vitro ADME; conditions: 1 hour incubation; diflunisal-NAC compared with salicylate-NAC
Protocol: as §1
The capacity for conjugates of the invention to be cleaved was tested in vitro using rat or human liver microsomes. […]

[9] = 0.75 mmol/kg/day as lysine salt, ip, compared with separate administration of salicylate or NAC (FIG. 7)

Compound: O=C(Oc1ccccc1C(=O)O)c1ccccc1O [salsalate]
enhancement of side effects such as tinnitus (human diabetic patients): 66%

stability of free acid in water/methanol mixture ([1]; free acid, water/methanol, 3 and 24 hours (diflunisal-NAC: neutral pH, room temperature)): stable for 3- and 24-hour incubation
stability of lysine salt at neutral pH ([1]; lysine salt, neutral pH, room temperature or 4° C.): stable as lysine salts
Compound: CC(=O)NC(CSC(=O)C(C)c1ccc(CC(C)C)cc1)C(=O)O (stereo not drawn) [Dexibuprofen-NAC]

stability under acidic conditions, lysine salt ([1]; 3 h): stable after 3 hours
stability, free acid in the absence of lysine ([1]; 3 days): lost stability during a 3-day timecourse
Compound: CC(=O)N[C@@H](CSC(=O)c1ccccc1O)C(=O)O [Example 1, (R)-2-acetamido-3-(2-hydroxybenzoylthio)propanoic acid]
cleavage of conjugate, rat versus human microsomes [2]: Rat microsomes were found to be more potent in cleaving
detectable conjugate under basic conditions ([1]; basic pH (9), PBS, room temperature, 3 hour incubation, free acid and lysine salt tested): only the lysine salt showed any (sparing) détectable conjugate
glycemia ([3]; 0.38 mmol/kg or equivalent amount of combination, 4-day timecourse, male cd-1 mice (FIG. 17)): statistically-significant reduction
pancreatic beta-cell function (as assessed by plasma insulin levels) ([3]; alloxan-treated mice (FIG. 17)): statistically-significant potection of pancreatic beta-cell function
plasma insulin levels ([3]; i.p., listed as GMC-3a): preservation of insulin levels
plasma insulin levels ([3]; i.p., listed as salicylate-NAC): an increase in plasma insulin levels
effect of alloxan on β-cells ([3]; lysine salts (FIG. 6)): reduce the effect of alloxan on β-cells
glycemia ([3]; lysine salts, i.p., 4-day timecourse (FIG. 6)): statistically-significant reductions in glycemia
plasma glucose in glucose tolerance test (db/db mice [4]): reductions in plasma glucose
free fatty acid levels (db/db mice [5]; 0.38 mmol/kg/day or equivalent amount of combination (FIG. 18)): lowered significantly only by the conjugate
free fatty acid levels (db/db mice [5]; [9]): significantly improved
plasma triglyceride levels (db/db mice [5]; [9]): significantly improved
free fatty acid levels (db/db mice [5]; 0.75 mmol/kg/day or equivalent amount of combination (FIG. 18)): statistically-significant reductions
triglycerides (db/db mice [5]; chronic oral, diflunisal-NAC 0.5, salicylate-NAC 1.5 mmol/kg/day as lysine salt (FIG. 11)): significant réductions in triglycerides

stability of lysine salt in PBS, 3 hours [1]: stable
stability of lysine salt in water/methanol mixture [1]: did not show comparable stability
stability of lysine salt in PBS, 24 hours ([1]; 24 h, pH 7): not after 24 hours
stability of free acid in water/methanol mixture ([1]; pH 7): stable over 3 and 24 hours
pancreatic weight (db/db mice [6]): without affecting pancreatic weight
epididimal adipose tissue weight (db/db mice [5]; oral 0.5 mmol/kg, treated group (vehicle 1.7±0.09)): 1.8 ± 0.07 g
macroscopic lesions of the gastro intestinal system (db/db mice [5]; oral treatment of db/db mice): did not induce any macroscopic lesions
final plasma concentrations of diflunisal and NAC ([7]; oral 20 mg/kg conjugate versus separate components): the final concentrations were the same
Compound: CC(=O)N[C@@H](CSC(=O)c1cc(-c2ccc(F)cc2F)ccc1O)C(=O)O [Example 13]
cleavage of conjugate, rat versus human microsomes [2]: Rat microsomes were found to be more potent in cleaving
percentage of anti-inflammatory component released by rat liver microsomes ([2]; diflunisal-NAC compared with salicylate-NAC): a higher percentage of diflunisal that salicyalte was released
body weight of treated db/db mice (db/db mice [5]; oral 0.5 mmol/kg (FIG. 20)): did not affect the weight
body weight and epididimal adipose tissue weight (control animals): did not affect these two parameters
plasma concentration profile of diflunisal and NAC ([7]; oral 20 mg/kg conjugate versus equivalent diflunisal and NAC given separately): a more gradual increase in plasma concentrations
percentage of anti-inflammatory component released by human liver microsomes [8]: a higher percentage of diflunisal that salicyalte was released
